How the values were obtained:
Experiment in all cases: Kinase panel study
Type in all cases: biochemical
Details in all cases: read-out: Percentage of inhibition; for inhibition at 1 µM: 1000nM; for inhibition at 10 µM: 10000nM
PLK1 = target: T1, PLK1 (Homo sapiens, UniProt P53350)
T1 construct: purchased Thermo Fisher Scientific
How it was run: (§1)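 Inhibition was measured in an outsourced in vitro kinase panel using the ZLyte or Adapta format under the provider's standard procedures. Values are percent inhibition at 10 µM or 1 µM compound, and IC50s were also obtained.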

PLK2 = target: T2, PLK2 (Homo sapiens, UniProt Q9NYY3)
T2 construct: purchased Thermo Fisher Scientific
T2 sequence (Q9NYY3 whole entry): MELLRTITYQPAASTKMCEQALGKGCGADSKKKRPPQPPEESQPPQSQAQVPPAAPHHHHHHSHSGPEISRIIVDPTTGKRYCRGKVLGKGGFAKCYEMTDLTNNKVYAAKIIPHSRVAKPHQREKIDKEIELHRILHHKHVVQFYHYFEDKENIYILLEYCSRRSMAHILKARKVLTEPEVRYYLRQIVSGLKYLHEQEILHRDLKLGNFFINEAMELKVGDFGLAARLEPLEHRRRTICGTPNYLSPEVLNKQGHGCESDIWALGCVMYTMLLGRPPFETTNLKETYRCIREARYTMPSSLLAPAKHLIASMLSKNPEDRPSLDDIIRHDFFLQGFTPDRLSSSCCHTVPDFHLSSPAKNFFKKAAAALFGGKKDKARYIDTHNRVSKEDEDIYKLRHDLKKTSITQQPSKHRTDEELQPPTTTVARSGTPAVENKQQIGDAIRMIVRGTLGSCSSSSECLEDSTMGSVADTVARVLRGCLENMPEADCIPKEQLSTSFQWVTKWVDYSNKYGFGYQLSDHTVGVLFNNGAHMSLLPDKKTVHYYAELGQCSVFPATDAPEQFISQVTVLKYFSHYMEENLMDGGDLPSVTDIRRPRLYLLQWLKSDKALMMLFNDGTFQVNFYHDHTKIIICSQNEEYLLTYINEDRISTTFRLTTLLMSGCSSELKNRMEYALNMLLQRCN
How it was run: as §1

DAPK1 = target: T3, DAPK1 (Homo sapiens, UniProt P53355)
T3 construct: purchased Thermo Fisher Scientific
How it was run: as §1

INSR = target: T4, INSR (Homo sapiens, UniProt P06213)
T4 construct: purchased Thermo Fisher Scientific
How it was run: as §1

PRKCG (PKC gamma) = target: T5, PRKCG (PKC gamma) (Homo sapiens, UniProt P05129)
T5 construct: purchased Thermo Fisher Scientific
How it was run: as §1

ABL1 E255K = target: T6, ABL1 E255K (Homo sapiens, UniProt P00519, E255K)
T6 construct: purchased Thermo Fisher Scientific
How it was run: as §1

NUAK1 (ARK5) = target: T7, NUAK1 (ARK5) (Homo sapiens, UniProt O60285)
T7 construct: purchased Thermo Fisher Scientific
T7 sequence (O60285 1-661): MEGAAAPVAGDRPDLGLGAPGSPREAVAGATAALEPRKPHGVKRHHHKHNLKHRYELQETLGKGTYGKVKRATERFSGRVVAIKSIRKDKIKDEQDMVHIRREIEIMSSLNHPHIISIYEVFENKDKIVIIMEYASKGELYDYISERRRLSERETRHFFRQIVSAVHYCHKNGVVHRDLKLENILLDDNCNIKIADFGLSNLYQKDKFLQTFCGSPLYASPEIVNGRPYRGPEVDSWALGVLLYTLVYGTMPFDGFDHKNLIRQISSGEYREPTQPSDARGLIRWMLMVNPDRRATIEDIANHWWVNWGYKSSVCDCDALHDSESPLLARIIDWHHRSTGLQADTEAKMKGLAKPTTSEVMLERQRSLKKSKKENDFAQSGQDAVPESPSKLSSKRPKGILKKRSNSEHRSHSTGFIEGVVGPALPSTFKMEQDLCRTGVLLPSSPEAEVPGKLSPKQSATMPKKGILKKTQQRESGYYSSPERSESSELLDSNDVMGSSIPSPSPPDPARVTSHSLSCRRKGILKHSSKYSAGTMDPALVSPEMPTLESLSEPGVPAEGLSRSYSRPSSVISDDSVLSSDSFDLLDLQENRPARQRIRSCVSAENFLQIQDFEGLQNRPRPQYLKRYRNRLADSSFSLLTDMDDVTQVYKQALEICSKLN
How it was run: as §1

SRPK1 = target: T8, SRPK1 (Homo sapiens, UniProt Q96SB4)
T8 construct: purchased Thermo Fisher Scientific
How it was run: as §1

EGFR (ErbB1) G719S = target: T9, EGFR (ErbB1) G719S (Homo sapiens, UniProt P00533, G719S)
T9 construct: purchased Thermo Fisher Scientific
T9 sequence (P00533 25-1210 G719S): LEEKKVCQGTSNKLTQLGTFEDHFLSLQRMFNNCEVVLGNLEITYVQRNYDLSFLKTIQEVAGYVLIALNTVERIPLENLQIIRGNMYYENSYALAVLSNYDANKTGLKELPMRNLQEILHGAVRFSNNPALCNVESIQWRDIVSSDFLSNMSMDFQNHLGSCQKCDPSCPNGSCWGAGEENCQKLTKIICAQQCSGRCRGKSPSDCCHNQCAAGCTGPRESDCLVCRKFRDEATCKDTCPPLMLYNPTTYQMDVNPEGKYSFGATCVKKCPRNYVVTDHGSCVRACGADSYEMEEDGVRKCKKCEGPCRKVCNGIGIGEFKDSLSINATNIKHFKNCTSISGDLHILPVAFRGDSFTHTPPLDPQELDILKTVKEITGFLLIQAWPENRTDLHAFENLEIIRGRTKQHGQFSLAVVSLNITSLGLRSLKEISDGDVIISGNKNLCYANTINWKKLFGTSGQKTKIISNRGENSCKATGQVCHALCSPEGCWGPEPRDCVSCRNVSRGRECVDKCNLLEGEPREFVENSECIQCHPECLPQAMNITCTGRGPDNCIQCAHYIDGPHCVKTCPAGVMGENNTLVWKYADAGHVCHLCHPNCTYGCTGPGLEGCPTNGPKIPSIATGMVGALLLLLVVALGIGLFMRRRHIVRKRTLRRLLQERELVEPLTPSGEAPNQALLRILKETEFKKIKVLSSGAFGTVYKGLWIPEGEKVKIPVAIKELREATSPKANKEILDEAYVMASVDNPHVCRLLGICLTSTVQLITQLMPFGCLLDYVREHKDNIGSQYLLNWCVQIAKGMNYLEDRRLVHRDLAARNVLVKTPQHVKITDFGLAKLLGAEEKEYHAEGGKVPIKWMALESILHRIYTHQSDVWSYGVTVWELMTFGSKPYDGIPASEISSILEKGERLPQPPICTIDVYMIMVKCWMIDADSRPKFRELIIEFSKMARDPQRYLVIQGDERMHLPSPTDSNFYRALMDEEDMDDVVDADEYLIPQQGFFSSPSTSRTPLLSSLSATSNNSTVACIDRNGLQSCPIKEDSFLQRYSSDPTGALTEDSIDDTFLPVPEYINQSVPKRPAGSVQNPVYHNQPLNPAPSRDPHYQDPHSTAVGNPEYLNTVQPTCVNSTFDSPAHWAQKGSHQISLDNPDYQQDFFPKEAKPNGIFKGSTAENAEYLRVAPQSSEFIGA
How it was run: as §1

CSNK1G3 (CK1 gamma 3) = target: T10, CSNK1G3 (CK1 gamma 3) (Homo sapiens, UniProt Q9Y6M4)
T10 construct: purchased Thermo Fisher Scientific
T10 sequence (Q9Y6M4 whole entry): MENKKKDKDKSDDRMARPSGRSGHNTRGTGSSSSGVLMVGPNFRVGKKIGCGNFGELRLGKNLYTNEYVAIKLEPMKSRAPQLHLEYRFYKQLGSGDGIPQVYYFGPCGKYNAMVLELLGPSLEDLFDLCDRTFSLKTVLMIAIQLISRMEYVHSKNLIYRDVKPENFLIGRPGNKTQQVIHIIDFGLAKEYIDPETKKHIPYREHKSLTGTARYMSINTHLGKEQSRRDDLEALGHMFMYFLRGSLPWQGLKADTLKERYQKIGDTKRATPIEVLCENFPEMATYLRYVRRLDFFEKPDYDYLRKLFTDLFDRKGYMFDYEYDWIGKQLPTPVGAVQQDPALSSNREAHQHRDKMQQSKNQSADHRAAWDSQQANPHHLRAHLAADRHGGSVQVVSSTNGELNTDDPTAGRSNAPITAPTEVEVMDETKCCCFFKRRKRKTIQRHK
How it was run: as §1

MST1R (RON) = target: T11, MST1R (RON) (Homo sapiens, UniProt Q04912)
T11 construct: purchased Thermo Fisher Scientific
T11 sequence (Q04912 25-1400): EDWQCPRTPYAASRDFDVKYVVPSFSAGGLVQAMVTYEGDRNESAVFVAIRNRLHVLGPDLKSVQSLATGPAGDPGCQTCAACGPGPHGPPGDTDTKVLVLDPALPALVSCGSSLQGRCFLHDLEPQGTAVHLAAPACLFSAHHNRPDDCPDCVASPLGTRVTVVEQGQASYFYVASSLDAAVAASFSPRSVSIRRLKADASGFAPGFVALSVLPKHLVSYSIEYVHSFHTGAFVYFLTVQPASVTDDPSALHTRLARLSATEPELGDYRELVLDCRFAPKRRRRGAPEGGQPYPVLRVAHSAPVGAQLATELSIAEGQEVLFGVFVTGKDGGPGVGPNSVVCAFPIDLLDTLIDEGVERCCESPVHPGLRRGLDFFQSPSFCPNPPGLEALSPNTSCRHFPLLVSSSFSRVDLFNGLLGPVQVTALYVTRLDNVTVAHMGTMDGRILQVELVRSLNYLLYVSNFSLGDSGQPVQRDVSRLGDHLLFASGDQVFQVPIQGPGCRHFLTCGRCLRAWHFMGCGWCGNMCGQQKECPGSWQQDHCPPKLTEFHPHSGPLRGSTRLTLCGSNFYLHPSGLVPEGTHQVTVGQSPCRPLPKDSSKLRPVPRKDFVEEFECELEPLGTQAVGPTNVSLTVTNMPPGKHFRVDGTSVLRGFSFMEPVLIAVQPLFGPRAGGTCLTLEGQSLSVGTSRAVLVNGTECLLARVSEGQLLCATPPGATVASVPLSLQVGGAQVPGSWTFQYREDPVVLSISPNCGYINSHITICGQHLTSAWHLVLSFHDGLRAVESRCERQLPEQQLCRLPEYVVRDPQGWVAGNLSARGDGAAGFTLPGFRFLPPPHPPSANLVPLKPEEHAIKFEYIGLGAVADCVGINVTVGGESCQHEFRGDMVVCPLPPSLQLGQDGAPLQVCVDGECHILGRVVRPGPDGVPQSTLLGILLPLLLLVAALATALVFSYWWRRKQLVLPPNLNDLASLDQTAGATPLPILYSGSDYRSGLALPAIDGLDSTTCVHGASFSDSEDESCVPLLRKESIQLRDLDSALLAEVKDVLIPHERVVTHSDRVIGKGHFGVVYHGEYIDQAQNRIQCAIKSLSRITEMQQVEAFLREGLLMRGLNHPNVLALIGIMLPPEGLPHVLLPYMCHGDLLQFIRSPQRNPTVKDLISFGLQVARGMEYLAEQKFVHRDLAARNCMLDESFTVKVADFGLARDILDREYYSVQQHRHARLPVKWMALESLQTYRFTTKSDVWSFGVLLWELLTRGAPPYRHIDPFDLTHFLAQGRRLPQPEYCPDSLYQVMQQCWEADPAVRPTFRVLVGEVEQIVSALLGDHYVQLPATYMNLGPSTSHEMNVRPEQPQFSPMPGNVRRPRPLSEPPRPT
How it was run: as §1

T1 sequence (P53350 whole entry): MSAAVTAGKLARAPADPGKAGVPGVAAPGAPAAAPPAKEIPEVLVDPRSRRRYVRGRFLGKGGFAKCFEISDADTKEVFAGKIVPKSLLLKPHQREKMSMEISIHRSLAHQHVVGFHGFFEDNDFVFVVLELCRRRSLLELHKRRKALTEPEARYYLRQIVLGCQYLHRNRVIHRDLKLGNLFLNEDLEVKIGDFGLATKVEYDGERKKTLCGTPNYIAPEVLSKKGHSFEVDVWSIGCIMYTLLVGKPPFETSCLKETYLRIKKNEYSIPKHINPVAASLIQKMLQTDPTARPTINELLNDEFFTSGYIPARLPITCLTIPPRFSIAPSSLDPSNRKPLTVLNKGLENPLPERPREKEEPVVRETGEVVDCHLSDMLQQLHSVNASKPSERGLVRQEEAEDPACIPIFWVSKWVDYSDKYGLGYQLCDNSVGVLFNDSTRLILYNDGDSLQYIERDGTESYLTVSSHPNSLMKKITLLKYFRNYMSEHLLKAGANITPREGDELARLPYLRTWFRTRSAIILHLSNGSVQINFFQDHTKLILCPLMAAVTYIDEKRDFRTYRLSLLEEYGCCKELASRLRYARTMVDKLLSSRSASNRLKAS

| Structure (SMILES) | inhibition at 1 µM (PLK1) [%] | inhibition at 10 µM (PLK1) [%] | inhibition at 1 µM (PLK2) [%] | inhibition at 10 µM (PLK2) [%] | inhibition at 1 µM (DAPK1) [%] | inhibition at 10 µM (DAPK1) [%] | inhibition at 1 µM (INSR) [%] | inhibition at 10 µM (INSR) [%] | inhibition at 1 µM (PRKCG (PKC gamma)) [%] | inhibition at 10 µM (PRKCG (PKC gamma)) [%] | inhibition at 1 µM (ABL1 E255K) [%] | inhibition at 10 µM (ABL1 E255K) [%] | inhibition at 1 µM (NUAK1 (ARK5)) [%] | inhibition at 10 µM (NUAK1 (ARK5)) [%] | inhibition at 1 µM (SRPK1) [%] | inhibition at 10 µM (SRPK1) [%] | inhibition at 1 µM (EGFR (ErbB1) G719S) [%] | inhibition at 10 µM (EGFR (ErbB1) G719S) [%] | inhibition at 1 µM (CSNK1G3 (CK1 gamma 3)) [%] | inhibition at 10 µM (CSNK1G3 (CK1 gamma 3)) [%] | also measured |
| --- | --- | --- | --- | --- | --- | --- | --- | --- | --- | --- | --- | --- | --- | --- | --- | --- | --- | --- | --- | --- | --- |
| COc1ccc2c(c1OC)c(=O)n1c3ccc(O)cc3c3ccnc2c31 [MW01, 5-Hydroxy-10,11-dimethoxy-9H-benzo[c]indolo[3,2,1-ij][1,5]naphthyridin-9-one] | 5 | 3 | -1 | -2 | 8 | 14 | 1 | 11 | 13 | 16 | 7 | 11 | 48 | 66 | 12 | 15 | 5 | 14 | 4 | 12 | inhibition at 1 µM (MST1R (RON)): 22%; inhibition at 10 µM (MST1R (RON)): 39% |
| COc1ccc2cc3c(N)nn(C(=O)c4cccc(N(C)C)c4)c3nc2c1 [MW05, (3-Amino-7-methoxypyrazolo[3,4-b]quinolin-1-yl)-[3-(dimethylamino)phenyl]methanone] | 6 | 6 | 3 | -2 | 3 | 3 | 8 | -7 | 11 | -3 | 6 | 5 | 6 | 11 | 8 | 10 | 4 | -5 | 1 | 9 | inhibition at 1 µM (MST1R (RON)): -1%; inhibition at 10 µM (MST1R (RON)): -16% |
